Measurements as given in patent US7285556B2, “Thienopyrimidine-based inhibitors of the src family” (Board of Regents, The University of Texas Systems, priority 2000, dated 2007).
Read-outs that look alike come from different tables or passages of the source.

Biological target: T1, Recombinant human Src (Homo sapiens, UniProt P12931)
T1 construct: made in house; host or cells: baculovirus-insect cell system
Test: Src tyrosine kinase activity, poly E4Y and 32P-ATP
Format: biochemical
Method: Recombinant human Src was expressed using the baculovirus-insect cell system and purified as published (Budde et al., 1993 and 2000). Recombinant Csk and the FGF receptor (FGFr) were expressed as glutathione-S-transferase fusion proteins using the pGEX expression vector and E. coli, and purified as described (Sun & Budde, 1995).
The tyrosine kinase activity of Src, Csk and FGFr was determined using poly E4Y and ^32P-ATP. Briefly, enzymes were assayed in a reaction mixture consisting of 0.15 M EPPS-NaOH (pH 8.0) with 6 mM MgCl2, 0.2 mM γ^32P-ATP (0.2-0.4 mCi/μmol), 10% glycerol, 0.1% Triton X-100, and poly E4Y. Poly E4Y is a synthetic peptide whose phosphorylation is measured in this assay by the addition of the radioactively labeled phosphate from the ATP (Budde et al., 1995). […] When ATP was varied (0, 50, 100 and 250 μM), poly E4Y was kept constant at 150 μg/ml.

[1] = Table 2, read-out: Src IC50 (especially good inhibitors of Src)
[2] = read-out: IC50 (preferred compounds for treatment of Src family-related disease)

T1 sequence (P12931 whole entry): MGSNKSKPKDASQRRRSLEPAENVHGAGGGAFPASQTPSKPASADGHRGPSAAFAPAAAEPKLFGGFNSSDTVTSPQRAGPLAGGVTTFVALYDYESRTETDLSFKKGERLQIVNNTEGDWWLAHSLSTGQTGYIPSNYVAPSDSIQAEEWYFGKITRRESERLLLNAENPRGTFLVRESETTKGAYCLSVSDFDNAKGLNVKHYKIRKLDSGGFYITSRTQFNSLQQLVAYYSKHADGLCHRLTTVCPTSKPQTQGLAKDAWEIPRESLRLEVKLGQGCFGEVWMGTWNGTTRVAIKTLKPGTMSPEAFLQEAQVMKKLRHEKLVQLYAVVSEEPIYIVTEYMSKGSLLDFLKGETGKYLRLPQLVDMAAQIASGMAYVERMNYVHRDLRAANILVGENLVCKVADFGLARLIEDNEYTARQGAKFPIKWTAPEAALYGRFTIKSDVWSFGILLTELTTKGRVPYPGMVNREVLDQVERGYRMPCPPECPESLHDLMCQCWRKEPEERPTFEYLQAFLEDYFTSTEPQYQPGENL

| SMILES | IC50 [1] [nM] | IC50 [2] [nM] |
| --- | --- | --- |
| Cc1c(-c2ccc(C(=O)O)cc2)sc2c(NN=Cc3cccnc3)ncnc12 [Compound 453, 3-Pyridinecarboxaldehyde(6-(4-carboxyphenyl)-7-methylthieno[3,2-d]pyrimidin-4-yl)hydrazone] | ≤ 2000 | < 2000 |
| O=C(O)c1ccc(C=NNc2ncnc3cc(I)sc23)cc1 [Compound 395, 4-Carboxybenzaldehyde(6-iodothieno[3,2-d]pyrimidin-4-yl)hydrazone] | ≤ 2000 | < 2000 |
| Cc1c(CO)sc2c(NN=Cc3ccc(C(=O)O)cc3)ncnc12 [Compound 477, 4-Carboxybenzaldehyde(6-hydroxymethyl-7-methylthieno[3,2-d]pyrimidin-4-yl)hydrazone] | ≤ 2000 | < 2000 |
| Cc1c(C(O)C2CCCCC2)sc2c(NN=Cc3cccnc3)ncnc12 (centres unmarked) [Compound 469, 3-Pyridinecarboxaldehyde(6-(1-cyclohexyl-1-hydroxy)methyl-7-methylthieno[3,2-d]pyrimidin-4-yl)hydrazone] | ≤ 2000 | < 2000 |
| O=C(O)c1ccc(C=NNc2ncnc3cc(-c4cccc(Cl)c4)sc23)cc1 [Compound 305, 4-Carboxybenzaldehyde(6-(3-chlorophenyl)thieno[3,2-d]pyrimidin-4-yl)hydrazone] | ≤ 2000 | < 2000 |
| COc1ccc(-c2cc3ncnc(NN=Cc4ccc(C(=O)O)cc4)c3s2)cc1 [Compound 406, 4-Carboxybenzaldehyde(6-(4-methoxyphenyl)thieno[3,2-d]pyrimidin-4-yl)hydrazone] | ≤ 2000 | < 2000 |
| COc1ccc(C=NNc2ncnc3c(C)c(-c4cccc(CO)c4)sc23)cc1O [Compound 443, 3-Hydroxy-4-methoxybenzaldehyde(6-(3-hydroxymethylphenyl)-7-methylthieno[3,2-d]pyrimidin-4-yl)hydrazone] | ≤ 2000 | < 2000 |
| O=C(O)c1ccc(C=NNc2ncnc3c2sc2ncccc23)cc1 [Compound 245, 4-Carboxybenzaldehyde(pyrido[3′,2′:4,5]thieno[3,2-d]pyrimidin-4-yl)hydrazone] | ≤ 2000 | < 2000 |
| Cc1c(-c2ccccc2)sc2c(NN=Cc3ccc(C(=O)O)cc3)ncnc12 [Compound 360, 4-Carboxybenzaldehyde(7-methyl-6-phenylthieno[3,2-d]pyrimidin-4-yl)hydrazone] | ≤ 2000 | < 2000 |
| COc1ccc(C=NNc2ncnc3c(C)c(CO)sc23)cc1O [Compound 478, 3-Hydroxy-4-methoxybenzaldehyde(6-hydroxymethyl-7-methylthieno[3,2-d]pyrimidin-4-yl)hydrazone] | ≤ 2000 | < 2000 |
| COc1ccccc1-c1sc2c(NN=Cc3ccc(C(=O)O)cc3)ncnc2c1C [Compound 433, 4-Carboxybenzaldehyde(6-(2-methoxyphenyl)-7-methylthieno[3,2-d]pyrimidin-4-yl)hydrazone] | ≤ 2000 | < 2000 |
| Cc1c(C(O)c2ccsc2)sc2c(NN=Cc3cccs3)ncnc12 (centres unmarked) [Compound 463, 2-Thiophenecarboxaldehyde(6-(1-hydroxy-1-[3-thienyl])methyl-7-methylthieno[3,2-d]pyrimidin-4-yl)hydrazone] | ≤ 2000 | < 2000 |
| COc1ccc(C=NNc2ncnc3cc(-c4ccccc4Cl)sc23)cc1O [Compound 321, 3-Hydroxy-4-methoxybenzaldehyde(6-(2-chlorophenyl)thieno[3,2-d]pyrimidin-4-yl)hydrazone] | ≤ 2000 | < 2000 |
| COc1ccc(-c2cc3ncnc(NN=Cc4cccnc4)c3s2)cc1 [Compound 405, 3-Pyridinecarboxaldehyde(6-(4-methoxyphenyl)thieno[3,2-d]pyrimidin-4-yl)hydrazone] | ≤ 2000 | < 2000 |
| Cc1c(C(=O)O)sc2c(NN=Cc3cccnc3)ncnc12 [Compound 465, 3-Pyridinecarboxaldehyde(6-carboxy-7-methylthieno[3,2-d]pyrimidin-4-yl)hydrazone] | ≤ 2000 | < 2000 |
| COc1ccc(C=NNc2ncnc3c(C)c(C(=O)O)sc23)cc1O [Compound 468, 3-Hydroxy-4-methoxybenzaldehyde(6-carboxy-7-methylthieno[3,2-d]pyrimidin-4-yl)hydrazone] | ≤ 2000 | < 2000 |
| COc1ccc(C=NNc2ncnc3c(C)c(-c4ccccc4OC)sc23)cc1O [Compound 435, 3-Hydroxy-4-methoxybenzaldehyde(6-(2-methoxyphenyl)-7-methylthieno[3,2-d]pyrimidin-4-yl)hydrazone] | ≤ 2000 | < 2000 |
| Cc1c(C(O)c2ccccc2)sc2c(NN=Cc3ccc(C(=O)O)cc3)ncnc12 (centres unmarked) [Compound 458, 4-Carboxybenzaldehyde(6-(1-hydroxy-1-phenyl)methyl-7-methylthieno[3,2-d]pyrimidin-4-yl)hydrazone] | ≤ 2000 | < 2000 |
| Cc1c(/C=C/c2ccccc2)sc2c(NN=Cc3ccc(C(=O)O)cc3)ncnc12 [Compound 448, 4-Carboxybenzaldehyde(7-methyl-6-(trans-2-phenylvinyl)-thieno[3,2-d]pyrimidin-4-yl)hydrazone] | ≤ 2000 | < 2000 |
| Cc1c(C(O)c2ccsc2)sc2c(NN=Cc3cccnc3)ncnc12 (centres unmarked) [Compound 461, 3-Pyridinecarboxaldehyde(6-(1-hydroxy-1-[3-thienyl])methyl-7-methylthieno[3,2-d]pyrimidin-4-yl)hydrazone] | ≤ 2000 | < 2000 |
| COc1ccc(C=NNc2ncnc3c(C)c(-c4ccsc4)sc23)cc1O [Compound 382, 3-Hydroxy-4-methoxybenzaldehyde(7-methyl-6-(3-thienyl)thieno[3,2-d]pyrimidin-4-yl)hydrazone] | ≤ 2000 | < 2000 |
| Cc1c(-c2ccccc2)sc2c(NN=Cc3cccnc3)ncnc12 [Compound 359, 3-Pyridinecarboxaldehyde(7-methyl-6-phenylthieno[3,2-d]pyrimidin-4-yl)hydrazone] | ≤ 2000 | < 2000 |
| Cc1c(C(O)c2cccnc2)sc2c(NN=Cc3cccnc3)ncnc12 (centres unmarked) [Compound 483, 3-Pyridinecarboxaldehyde(6-(1-hydroxy-1-[3-pyridyl])methyl-7-methylthieno[3,2-d]pyrimidin-4-yl)hydrazone] | ≤ 2000 | < 2000 |
| Cc1c(C(O)c2cccs2)sc2c(NN=Cc3ccc(C(=O)O)cc3)ncnc12 (centres unmarked) [Compound 488, 4-Carboxybenzaldehyde(6-(1-hydroxy-1-[2-thienyl])methyl-7-methylthieno[3,2-d]pyrimidin-4-yl)hydrazone] | ≤ 2000 | < 2000 |
| Cc1c(C(Cc2ccccc2)c2ccccc2)sc2c(NN=Cc3cccs3)ncnc12 (centres unmarked) [Compound 474, 2-Thiophenecarboxaldehyde(6-(1-benzyl-1-phenyl)methyl-7-methylthieno[3,2-d]pyrimidin-4-yl)hydrazone] | ≤ 2000 | < 2000 |
| Cc1csc2c(NN=Cc3ccc(O)c(Cl)c3)ncnc12 [Compound 55, 3-Chloro-4-hydroxybenzaldehyde(7-methylthieno[3,2-d]pyrimidin-4-yl)hydrazone] | ≤ 2000 | < 2000 |
| Cc1c(C(=O)O)sc2c(NN=Cc3cccs3)ncnc12 [Compound 467, 2-Thiophenecarboxaldehyde(6-carboxy-7-methylthieno[3,2-d]pyrimidin-4-yl)hydrazone] | – | < 2000 |
